From patent publication US8901118B2, “Compounds and methods for kinase modulation, and indications therefor” (Plexxikon Inc., priority 2010, dated 2014) come the findings set out here.

Series [1] can be described thus: Relative solubility by turbidity in aqueous buffers (pH 1.5, 4.5, 6.8, 7.4). It counts as physicochemical. As to conditions: for turbidity threshold (L, M, H) 1.4: pH 1.5 (SGF); for turbidity threshold (L, M, H) 4.5: pH 4.5 (SIF); for turbidity threshold (L, M, H) 6.8: pH 6.8 (SIF); for turbidity threshold (L, M, H) 7.4: pH 7.4 (HEPES). The essentials:
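Reported value: concentration at which optical density at 490, 535 and 650 nm passes 0.01, taken as the mean of the three wavelengths. Buffers were 0.5M NaCl pH 1.5, 0.05M NaH2PO4 pH 4.5 or 6.8, and 10 mM HEPES/150 mM NaCl pH 7.4, each receiving serial 1:1 DMSO dilutions of a 25 mM stock.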

The test system of another series is SKNSH cells. The experiment in a line: SKNSH (human neuroblastoma) cell proliferation assay (ATPlite). It counts as cell-based. As to conditions: SK-N-SH, read-out: Inhibition of Cell Proliferation IC50, SKNSH. The essentials:
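Fms/Trk inhibitor efficacy was tested by proliferation of SKNSH neuroblastoma cells. After 3 days of compound exposure at 37° C. in 5% CO2, 20 μL per well of ATPlite 1 step reagent was added, plates sat 10 minutes at room temperature, and luminescence, proportional to cell number, was read on a Safire reader to derive IC50.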

Each structure is given as a SMILES string. Some results are limits rather than exact numbers.

For the compound `Clc1cnc2[nH]cc(Cc3cnc(NC4CCCCC4)nc3)c2c1` [Compound P-3001, [5-(5-chloro-1H-pyrrolo[2,3-b]pyridin-3-ylmethyl)-pyrimidin-2-yl]-cyclohexyl-amine], in series [1], the “turbidity threshold (L, M, H) 1.4” value is on record as “H (high solubility if the threshold concentration is >250 μm)”; the “turbidity threshold (L, M, H) 4.5” value is “L (low solubility if the threshold concentration is <31.3 μM)”; the “turbidity threshold (L, M, H) 6.8” value is “L (low solubility if the threshold concentration is <31.3 μM)”; the “turbidity threshold (L, M, H) 7.4” value is “L (low solubility if the threshold concentration is <31.3 μM)”.
As for `COc1ccc(Nc2ncc(Cc3c[nH]c4ncc(C)cc34)cn2)cc1` [Compound P-3021, (4-Methoxy-phenyl)-[5-(5-methyl-1H-pyrrolo[2,3-b]pyridin-3-ylmethyl)-pyrimidin-2-yl]-amine], the IC50 in the series on SKNSH cells is < 1 µM.
Still for that read-out and setting: next, `CCCOc1ccc(Nc2ncc(Cc3c[nH]c4ncc(C)cc34)cn2)cc1` [Compound P-3024, [5-(5-Methyl-1H-pyrrolo[2,3-b]pyridin-3-ylmethyl)-pyrimidin-2-yl]-(4-propoxy-phenyl)-amine]: < 1 µM; `CCc1ccc(Nc2ncc(Cc3c[nH]c4ncc(C)cc34)cn2)cc1` [Compound P-3025, (4-Ethyl-phenyl)-[5-(5-methyl-1H-pyrrolo[2,3-b]pyridin-3-ylmethyl)-pyrimidin-2-yl]-amine]: < 1 µM.
`CCOc1ccc(Nc2ncc(Cc3c[nH]c4ncc(C)cc34)cn2)cc1` [Compound P-3026, (4-Ethoxy-phenyl)-[5-(5-methyl-1H-pyrrolo[2,3-b]pyridin-3-ylmethyl)-pyrimidin-2-yl]-amine]: the IC50 in the series on SKNSH cells is > 25 µM.
Still for that read-out and setting: next, `Cc1cnc2[nH]cc(Cc3cnc(Nc4cc(-c5ccc(F)cc5)n[nH]4)nc3)c2c1` [Compound P-3028, [5-(4-Fluoro-phenyl)-2H-pyrazol-3-yl]-[5-(5-methyl-1H-pyrrolo[2,3-b]pyridin-3-ylmethyl)-pyrimidin-2-yl]-amine]: < 20 µM.
As to `Cc1cnc2[nH]cc(Cc3cnc(Nc4cc(C(C)(C)C)n[nH]4)nc3)c2c1` [Compound P-3029, (5-tert-Butyl-2H-pyrazol-3-yl)-[5-(5-methyl-1H-pyrrolo[2,3-b]pyridin-3-ylmethyl)-pyrimidin-2-yl]-amine], in the series on SKNSH cells, the IC50 is > 25 µM.
The same measure, in the same setting: for `Cc1cnc2[nH]cc(Cc3cnc(Nc4ccc(C(C)(C)C)cc4)nc3)c2c1` [Compound P-3030, (4-tert-Butyl-phenyl)-[5-(5-methyl-1H-pyrrolo[2,3-b]pyridin-3-ylmethyl)-pyrimidin-2-yl]-amine amine] the value was < 0.1 µM.
For the compound `Cc1cnc2[nH]cc(Cc3cnc(Nc4ccc(C(O)(C(F)(F)F)C(F)(F)F)cc4)nc3)c2c1` [Compound P-3031, 1,1,1,3,3,3-Hexafluoro-2-{4-[5-(5-methyl-1H-pyrrolo[2,3-b]pyridin-3-ylmethyl)-pyrimidin-2-ylamino]-phenyl}-propan-2-ol], the IC50 in the series with SKNSH cells was < 0.1 µM.
As for `Cc1cnc2[nH]cc(Cc3cnc(Nc4cc(C5CC5)n[nH]4)nc3)c2c1` [Compound P-3032, (5-Cyclopropyl-2H-pyrazol-3-yl)-[5-(5-methyl-1H-pyrrolo[2,3-b]pyridin-3-ylmethyl)-pyrimidin-2-yl]-amine], in the series on SKNSH cells, the IC50 is < 1 µM.
The same measure, in the same setting: for `CSc1ccc(Nc2ncc(Cc3c[nH]c4ncc(C)cc34)cn2)cc1` [Compound P-3033, [5-(5-Methyl-1H-pyrrolo[2,3-b]pyridin-3-ylmethyl)-pyrimidin-2-yl]-(4-methylsulfanyl-phenyl)-amine] the value was < 1 µM.
On to `Cc1cnc2[nH]cc(Cc3cnc(Nc4ccc(S(C)(=O)=O)cc4)nc3)c2c1` [Compound P-3034, (4-Methanesulfonyl-phenyl)-[5-(5-methyl-1H-pyrrolo[2,3-b]pyridin-3-ylmethyl)-pyrimidin-2-yl]-amine], for which the IC50 with SKNSH cells was < 1 µM.
For `Cc1cnc2[nH]cc(Cc3cnc(Nc4cc(C(F)(F)F)n[nH]4)nc3)c2c1` [Compound P-3037, [5-(5-Methyl-1H-pyrrolo[2,3-b]pyridin-3-ylmethyl)-pyrimidin-2-yl]-(5-trifluoromethyl-2H-pyrazol-3-yl)-amine], the IC50 in the series with SKNSH cells is > 25 µM.
For the compound `COc1ccc(Nc2ccc(C(=O)c3c[nH]c4ncc(C)cc34)c(F)n2)cn1` [Compound P-3040, [2-Fluoro-6-(6-methoxy-pyridin-3-ylamino)-pyridin-3-yl]-(5-methyl-1H-pyrrolo[2,3-b]pyridin-3-yl)-methanone], in series [1], the “turbidity threshold (L, M, H) 1.4” value is reported as “M (moderate solubility if the threshold concentration is 31.3 μM to 250 μM)”; the “turbidity threshold (L, M, H) 4.5” value was “M (moderate solubility if the threshold concentration is 31.3 μM to 250 μM)”; the “turbidity threshold (L, M, H) 6.8” value was “M (moderate solubility if the threshold concentration is 31.3 μM to 250 μM)”; the “turbidity threshold (L, M, H) 7.4” value is recorded as “M (moderate solubility if the threshold concentration is 31.3 μM to 250 μM)”. The IC50 with SKNSH cells was > 1 µM.
As to `Cc1cnc2[nH]cc(Cc3ccc(Nc4ccc(C)nc4)nc3F)c2c1` [Compound P-3041, [6-Fluoro-5-(5-methyl-1H-pyrrolo[2,3-b]pyridin-3-ylmethyl)-pyridin-2-yl]-(6-methyl-pyridin-3-yl)-amine], the IC50 with SKNSH cells is > 1 µM.
Same read-out and setting: next, `Cc1ccc(Nc2ccc(Cc3c[nH]c4ncc(Cl)cc34)c(F)n2)cn1` [Compound P-3042, [5-(5-Chloro-1H-pyrrolo[2,3-b]pyridin-3-ylmethyl)-6-fluoro-pyridin-2-yl]-(6-methyl-pyridin-3-yl)-amine]: > 1 µM.
Turning to `Cc1cnc2[nH]cc(C(=O)c3ccc(Nc4ccc(C)nc4)nc3F)c2c1` [Compound P-3043, [2-Fluoro-6-(6-methyl-pyridin-3-ylamino)-pyridin-3-yl]-(5-methyl-1H-pyrrolo[2,3-b]pyridin-3-yl)-methanone], in series [1], the “turbidity threshold (L, M, H) 1.4” value is reported as “M (moderate solubility if the threshold concentration is 31.3 μM to 250 μM)”; the “turbidity threshold (L, M, H) 4.5” value was “M (moderate solubility if the threshold concentration is 31.3 μM to 250 μM)”; the “turbidity threshold (L, M, H) 6.8” value is reported as “M (moderate solubility if the threshold concentration is 31.3 μM to 250 μM)”; the “turbidity threshold (L, M, H) 7.4” value is recorded as “M (moderate solubility if the threshold concentration is 31.3 μM to 250 μM)”. The IC50 in the series on SKNSH cells is < 1 µM.
Regarding `Cc1ccc(Nc2ccc(C(=O)c3c[nH]c4ncc(Cl)cc34)c(F)n2)cn1` [Compound P-3044, (5-Chloro-1H-pyrrolo[2,3-b]pyridin-3-yl)-[2-fluoro-6-(6-methyl-pyridin-3-ylamino)-pyridin-3-yl]-methanone], in series [1], the “turbidity threshold (L, M, H) 1.4” value is reported as “L (low solubility if the threshold concentration is <31.3 μM)”; the “turbidity threshold (L, M, H) 4.5” value was “L (low solubility if the threshold concentration is <31.3 μM)”; the “turbidity threshold (L, M, H) 6.8” value is on record as “L (low solubility if the threshold concentration is <31.3 μM)”; the “turbidity threshold (L, M, H) 7.4” value is reported as “M (moderate solubility if the threshold concentration is 31.3 μM to 250 μM)”. The IC50 in the series on SKNSH cells is > 1 µM.
As to `CCOc1ccc(Nc2ccc(C(=O)c3c[nH]c4ncc(C)cc34)c(F)n2)cn1` [Compound P-3045, [6-(6-ethoxy-pyridin-3-ylamino)-2-fluoro-pyridin-3-yl]-(5-methyl-1H-pyrrolo[2,3-b]pyridin-3-yl)-methanone], in series [1], the “turbidity threshold (L, M, H) 1.4” value was “M (moderate solubility if the threshold concentration is 31.3 μM to 250 μM)”; the “turbidity threshold (L, M, H) 4.5” value was “M (moderate solubility if the threshold concentration is 31.3 μM to 250 μM)”; the “turbidity threshold (L, M, H) 6.8” value was “M (moderate solubility if the threshold concentration is 31.3 μM to 250 μM)”; the “turbidity threshold (L, M, H) 7.4” value was “L (low solubility if the threshold concentration is <31.3 μM)”. In the series on SKNSH cells, the IC50 is > 25 µM.
On to `CCOc1ncnc2[nH]cc(Cc3ccc(Nc4ccc(Br)nc4)nc3F)c12` [Compound P-4020, (6-Bromo-pyridin-3-yl)-[5-(4-ethoxy-7H-pyrrolo[2,3-d]pyrimidin-5-ylmethyl)-6-fluoro-pyridin-2-yl]-amine], for which, in the series with SKNSH cells, the IC50 was < 1 µM.
`CCOc1ncnc2[nH]cc(Cc3ccc(Nc4cccnc4)nc3F)c12` [Compound P-4021, [5-(4-Ethoxy-7H-pyrrolo[2,3-d]pyrimidin-5-ylmethyl)-6-fluoro-pyridin-2-yl]-pyridin-3-yl-amine]: the IC50 in the series with SKNSH cells is < 1 µM.
Regarding `CCn1cc(Nc2ccc(Cc3c[nH]c4ncnc(C5CC5)c34)c(F)n2)cn1` [Compound P-4036, [5-(4-Cyclopropyl-7H-pyrrolo[2,3-d]pyrimidin-5-ylmethyl)-6-fluoro-pyridin-2-yl]-(1-ethyl-1H-pyrazol-4-yl)-amine], in series [1], the “turbidity threshold (L, M, H) 1.4” value is reported as “H (high solubility if the threshold concentration is >250 μm)”; the “turbidity threshold (L, M, H) 4.5” value was “M (moderate solubility if the threshold concentration is 31.3 μM to 250 μM)”; the “turbidity threshold (L, M, H) 6.8” value is “L (low solubility if the threshold concentration is <31.3 μM)”; the “turbidity threshold (L, M, H) 7.4” value is on record as “L (low solubility if the threshold concentration is <31.3 μM)”.
Regarding `CCn1cc(Nc2ccc(C(=O)c3c[nH]c4ncnc(C5CC5)c34)c(F)n2)cn1` [Compound P-4037, (4-Cyclopropyl-7H-pyrrolo[2,3-d]pyrimidin-5-yl)-[6-(1-ethyl-1H-pyrazol-4-ylamino)-2-fluoro-pyridin-3-yl]-methanone], in series [1], the “turbidity threshold (L, M, H) 1.4” value was “H (high solubility if the threshold concentration is >250 μm)”; the “turbidity threshold (L, M, H) 4.5” value is listed as “M (moderate solubility if the threshold concentration is 31.3 μM to 250 μM)”; the “turbidity threshold (L, M, H) 6.8” value is reported as “M (moderate solubility if the threshold concentration is 31.3 μM to 250 μM)”; the “turbidity threshold (L, M, H) 7.4” value is “M (moderate solubility if the threshold concentration is 31.3 μM to 250 μM)”.
